From patent publication US20120045528A1, “USE OF N20 GAS FOR TREATING CHRONIC PAIN” (priority 2009, published 2012)
Entries after “also recorded” stand apart in the source; their conditions may differ. Read-outs that look alike come from different tables or passages of the source.

Tests used:
[1] = system: neuropathic rat (sciatic nerve constriction, CCI); assay: Nociceptive threshold by vocalization test to a mechanical stimulus (Randall-Selitto) in rats with mononeuropathy from sciatic nerve constriction (CCI); type: in vivo, male Sprague-Dawley rats
Procedure: A mononeuropathy is induced in male Sprague-Dawley rats (8 per group) by sciatic nerve constriction. More specifically, on D0, the rats are anesthetized with halothane and the sciatic nerve (injured hind paw side) is prepared using chromic catgut, 4 filament. Neuropathic pain lasting more than 40 days is thus induced.
On D7, the rats are placed in a hermetic chamber where they will inhale, for 75 minutes, the test gas mixture or medical air in the control rats (Sham). Repeated exposures to the mixtures take place on D7, D8, and D9.
Other rats are subjected to comparative treatments with conventional painkilling products, namely ketamine (3×10 mg/kg, sc) and morphine (1 mg/kg, sc).
The nociceptive threshold is then measured via a vocalization test in response to a mechanical stimulus (Randall-Selitto).
The data obtained per measurement are expressed as mean (±standard deviation). The level of significance is set starting from P<0.05.

human beings = conditions: cited from earlier work
[2] = morphine 1 mg/kg sc, neuropathic rat
[3] = N2O concentration 5-25% (vol. %)
[4] = N2O concentration 26-45% (vol. %)
[5] = N2O concentration 45-65% (vol. %)

In the case of `CN1CC[C@]23c4c5ccc(O)c4O[C@H]2[C@@H](O)C=C[C@H]3[C@H]1C5` [morphine], the “duration of analgesic effect” value ([1]; morphine 1 mg/kg sc, D14, neuropathic rat) is reported as 30 min, the “delayed effect (following days) / anti-hyperalgesic long-term effect” value [1, 2] is reported as “without a delayed effect; also recorded: without any anti-hyperalgesic long-term effect” and the “duration of effect following administration (in words)” value [1, 2] is reported as “limited to a few minutes”.
For `O=C1CC[C@@]2(O)[C@H]3Cc4ccc(O)c5c4[C@@]2(CCN3CC2CC2)[C@H]1O5` [naltrexone], the “effect on the anti-sensitization effect of 50% nitrous oxide on the following days” value ([1]; naltrexone given to block the analgesic effect of 50% nitrous oxide on D7) was “does not modify”.
In the case of `[N-]=[N+]=O` [nitrous oxide], the Amnesia (human beings; [3]) is given as “none”, the Analgesia (human beings; [3]) is given as “none” and the Contact (human beings; [3]) is given as “present”. For the same compound, the Psychic effects (human beings; [3]) was “slight”, the Amnesia (human beings; [4]) was “slight” and the Analgesia (human beings; [4]) was “weak”. The Contact (human beings; [4]) was “present”, the Psychic effects (human beings; [4]) was “drunkenness” and the Amnesia (human beings; [5]) was “complete”. The Analgesia (human beings; [5]) was “moderate”, the Contact (human beings; [5]) was “present” and the Psychic effects (human beings; [5]) was “drowsiness”. The “Psychic effects, Amnesia, Analgesia, Contact” value (human beings; N2O concentration 66-85% (vol. %)) was “Patient unconscious” and the “duration of sustained reduction of chronic pain of neuropathic type” value ([1]; rat, in vivo) was over 1 month.
With `CNC1(c2ccccc2Cl)CCCCC1=O` (stereo not shown) [ketamine] the “duration of anti-hyperalgesic effect” value ([1]; ketamine 3x10 mg/kg sc, neuropathic rat) was at most 2 days.
